Results from ChEMBL document CHEMBL2074427, “Identification of a mechanism by which the methylmercury antidotes N-acetylcysteine and dimercaptopropanesulfonate enhance urinary metal excretion: transport by the renal organic anion transporter-1” (Mol Pharmacol, 2002).

Key:
[1] = target: T1, Organic anion transporter 3 (Rattus norvegicus, UniProt Q9R1U7); experiment: (§1) TP_TRANSPORTER: uptake in Xenopus laevis oocytes; type: functional, cell-based; details: oocyte
T1 sequence (Q9R1U7 whole entry): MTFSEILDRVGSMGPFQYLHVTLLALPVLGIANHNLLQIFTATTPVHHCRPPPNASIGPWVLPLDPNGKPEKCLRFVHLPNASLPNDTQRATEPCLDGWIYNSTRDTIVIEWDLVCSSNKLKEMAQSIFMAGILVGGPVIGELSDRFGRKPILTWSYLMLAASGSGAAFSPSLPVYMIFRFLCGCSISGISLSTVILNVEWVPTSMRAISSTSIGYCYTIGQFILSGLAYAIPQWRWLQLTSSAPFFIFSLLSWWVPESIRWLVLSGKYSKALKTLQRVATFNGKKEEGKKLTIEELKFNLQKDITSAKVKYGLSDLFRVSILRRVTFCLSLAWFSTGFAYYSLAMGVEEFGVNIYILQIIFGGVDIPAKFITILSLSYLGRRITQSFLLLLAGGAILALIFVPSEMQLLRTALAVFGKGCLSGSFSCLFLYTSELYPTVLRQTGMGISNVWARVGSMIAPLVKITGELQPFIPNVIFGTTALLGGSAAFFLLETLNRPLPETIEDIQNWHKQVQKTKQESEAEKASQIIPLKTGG

[2] = target: T2, Solute carrier family 22 member 6 (Rattus norvegicus, UniProt O35956); experiment: as §1; type: functional, cell-based; details: oocyte
T2 sequence (O35956 whole entry): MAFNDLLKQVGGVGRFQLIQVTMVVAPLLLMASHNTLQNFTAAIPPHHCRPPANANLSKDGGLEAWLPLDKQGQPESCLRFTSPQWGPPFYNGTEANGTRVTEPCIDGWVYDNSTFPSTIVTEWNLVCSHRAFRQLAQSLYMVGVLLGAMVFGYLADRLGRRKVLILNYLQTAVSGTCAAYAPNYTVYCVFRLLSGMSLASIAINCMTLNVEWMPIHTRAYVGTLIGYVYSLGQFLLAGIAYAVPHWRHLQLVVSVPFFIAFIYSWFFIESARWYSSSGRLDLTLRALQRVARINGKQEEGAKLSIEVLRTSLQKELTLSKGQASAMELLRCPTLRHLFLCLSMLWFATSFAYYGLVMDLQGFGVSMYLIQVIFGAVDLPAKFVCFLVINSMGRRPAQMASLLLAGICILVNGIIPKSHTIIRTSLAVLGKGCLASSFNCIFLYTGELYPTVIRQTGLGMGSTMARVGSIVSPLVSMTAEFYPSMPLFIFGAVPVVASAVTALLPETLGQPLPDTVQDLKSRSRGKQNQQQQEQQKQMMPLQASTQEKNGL

[3] = target: T2, Solute carrier family 22 member 6; experiment: TP_TRANSPORTER: inhibition of PAH uptake in Xenopus laevis oocytes; type: functional, cell-based, Oocyte

Activity [1] | Activity [2] | Ki [3] [µM] | Km [2] [µM] | Compound
is not a substrate [-] | is not a substrate [-] | – | – | MeHg-penicillamine
– | – | 2000 | – | CC(=O)N[C@@H](CS)C(=O)O [ACETYLCYSTEINE]
is not a substrate [-] | – | – | 31 | MeHg-NAC
is not a substrate [-] | is not a substrate [-] | – | – | MeHg-glutathione
